Assays:
CaM = details: read-out: Kd of CDZ as CaM inhibitor; cited from earlier work
Cx50 gap junctions = type: cell-based, mouse; details: 1 μM peptide in both whole-cell patch pipettes; 1 μM ionomycin + 1.8 mM [Ca2+]o; Cx50-N2a cell pairs

| Compound | Kd (CaM) | Share of the Ca2+/CaM-dependent decline in Cx50 Gj prevented (Cx50 gap junctions) |
| --- | --- | --- |
| Clc1ccc(C(c2ccc(Cl)cc2)n2cc[n+](CC(OCc3ccc(Cl)cc3Cl)c3ccc(Cl)cc3Cl)c2)cc1 (centres unmarked) [CDZ, calmidazolium] | ~1 µM |  |
| FKLYKCISFGGTEITTRSHVLTKKRL [SCx50p] |  | 20% |

Reference: paper PMC3351833 (Biochemical Journal, 2011)
